Measurements as given in patent publication US9725448B2, “Neprilysin inhibitors” (THERAVANCE BIOPHARMA R&D IP, LLC, priority 2011, dated 2017).

What follows are compounds tested against T1, human NEP (Homo sapiens, UniProt P08473) (assay: In vitro enzyme inhibition assay at human NEP (fluorogenic peptide substrate)). Conditions: pKi values at human NEP (recombinant), given as ranges.
T1 construct: purchased R&D Systems, Minneapolis, Minn; 1182-ZN
Type: biochemical
Experimental: The inhibitory activities of compounds at human and rat neprilysin (EC 3.4.24.11; NEP) and human angiotensin converting enzyme (ACE) were determined using in vitro assays as described below.
Recombinant human NEP and recombinant human ACE were obtained commercially (R&D Systems, Minneapolis, Minn., catalog numbers 1182-ZN and 929-ZN, respectively). The fluorogenic peptide substrate Mca-D-Arg-Arg-Leu-Dap-(Dnp)-OH (Medeiros et al. (1997) Braz. J. Med. Biol. Res. 30:1157-62; Anaspec, San Jose, Calif.) and Abz-Phe-Arg-Lys(Dnp)-Pro-OH (Araujo et al. (2000) Biochemistry 39:8519-8525; Bachem, Torrance, Calif.) were used in the NEP and ACE assays respectively.
The assays were performed in 384-well white opaque plates at 37° C. using the fluorogenic peptide substrates at a concentration of 10 μM in Assay Buffer (NEP: 50 mM HEPES, pH 7.5, 100 mM NaCl, 0.01% polyethylene glycol sorbitan monolaurate (Tween-20), […]; ACE: 50 mM HEPES, pH 7.5, 100 mM NaCl, 0.01% Tween-20, 1 μM ZnSO4).
Test compounds were assayed over the range of concentrations from 10 μM to 20 pM. Test compounds were added to the enzymes and incubated for 30 minute at 37° C. prior to initiating the reaction by the addition of substrate. Reactions were terminated after 20 minutes of incubation at 37° C. by the addition of glacial acetic acid to a final concentration of 3.6% (v/v).
Plates were read on a fluorometer with excitation and emission wavelengths set to 320 nm and 405 nm, respectively. Inhibition constants were obtained by nonlinear regression of the data using the equation (GraphPad Software, Inc., San Diego, Calif.): ν=ν0/[1+(I/K′)] where ν is the reaction rate, ν0 is the uninhibited reaction rate, I is the inhibitor concentration and K′ is the apparent inhibition constant.
Compounds of the invention were tested in this assay and found to have pKi values at human NEP as follows.

T1 sequence (P08473 52-750 limits assumed): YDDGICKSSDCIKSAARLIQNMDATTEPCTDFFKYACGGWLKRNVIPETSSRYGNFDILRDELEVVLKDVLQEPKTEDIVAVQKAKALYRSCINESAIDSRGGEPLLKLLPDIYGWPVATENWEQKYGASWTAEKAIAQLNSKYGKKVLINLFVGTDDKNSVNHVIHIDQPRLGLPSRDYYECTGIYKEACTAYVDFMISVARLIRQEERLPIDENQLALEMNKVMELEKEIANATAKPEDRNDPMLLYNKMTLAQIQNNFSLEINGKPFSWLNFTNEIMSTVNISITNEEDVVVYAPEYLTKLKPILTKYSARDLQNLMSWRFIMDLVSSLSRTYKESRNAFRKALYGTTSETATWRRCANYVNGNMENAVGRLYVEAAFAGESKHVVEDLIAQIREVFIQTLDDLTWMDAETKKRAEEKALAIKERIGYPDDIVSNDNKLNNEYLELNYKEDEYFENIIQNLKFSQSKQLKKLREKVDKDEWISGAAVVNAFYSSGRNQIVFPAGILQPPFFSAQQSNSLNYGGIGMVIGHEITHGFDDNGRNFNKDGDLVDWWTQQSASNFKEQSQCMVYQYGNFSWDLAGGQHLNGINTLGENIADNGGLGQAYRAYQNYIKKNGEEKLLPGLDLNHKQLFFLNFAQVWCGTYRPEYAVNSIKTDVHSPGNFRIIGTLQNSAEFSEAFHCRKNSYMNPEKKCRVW

Compound | Ki [nM]
O=C(N[C@H](Cc1ccc(-c2ccccc2)cc1)CC1(C(=O)O)CC1)c1cc(O)n[nH]1 [Example 11-10, 1-{(R)-3-Biphenyl-4-yl-2-[(5-hydroxy-2H-pyrazole-3-carbonyl)-amino]-propyl}-cyclopropanecarboxylic acid] | 12.6 to 100
C[C@@](O)(CN(Cc1ccc(-c2cccc(Cl)c2)cc1)NC(=O)c1cc(C(=O)O)n[nH]1)C(=O)O [Example 7-10, 5-[N′—((R)-2-Carboxy-2-hydroxy-propyl)-N′-(3′-chlorobiphenyl-4-ylmethyl)-hydrazinocarbonyl]-1H-pyrazole-3-carboxylic acid] | ≤ 1
C[C@](O)(C[C@@H](Cc1ccc(-c2ccccc2)cc1)NC(=O)c1cc(C(=O)O)[nH]n1)C(=O)O [Example 2-11, 5-((1R,3S)-1-Biphenyl-4-ylmethyl-3-carboxy-3-hydroxy-butylcarbamoyl)-2H-pyrazole-3-carboxylic acid] | 1.26 to 10
C[C@@](O)(CN(Cc1ccc(-c2cc(Cl)ccc2F)cc1)NC(=O)c1c[nH]c(=O)o1)C(=O)O [Example 7-22, (R)-3-[N-(5′-Chloro-2′-fluorobiphenyl-4-ylmethyl)-N′-(2-oxo-2,3-dihydro-oxazole-5-carbonyl)-hydrazino]-2-hydroxy-2-methyl-propionic acid] | 1.26 to 10
C[C@@](O)(CN(Cc1ccc(-c2cc(Cl)ccc2F)cc1)NC(=O)c1cn(O)nn1)C(=O)O [Example 7-3, (R)-3-[N-(5′-Chloro-2′-fluorobiphenyl-4-ylmethyl)-N′-(1-hydroxy-1H-[1,2,3]triazole-4-carbonyl)-hydrazino]-2-hydroxy-2-methyl-propionic acid] | ≤ 1
C[C@@](O)(CN(Cc1ccc(-c2cccc(Cl)c2)cc1)NC(=O)c1cnc(O)nc1)C(=O)O [Example 7-25, (R)-3-[N-(3′-Chlorobiphenyl-4-ylmethyl)-N′-(2-hydroxy-pyrimidine-5-carbonyl)-hydrazino]-2-hydroxy-2-methyl-propionic acid] | 1.26 to 10
CC(O)(CN(Cc1ccc(-c2ccccc2)cc1)NC(=O)c1cnn[nH]1)C(=O)O (stereo not drawn) [Example 4-1, 3-[N-Biphenyl-4-ylmethyl-N′-(3H-[1,2,3]triazole-4-carbonyl)-hydrazino]-2-hydroxy-2-methyl-propionic acid] | 12.6 to 100
O=C(N[C@H](Cc1ccc(-c2ccccc2)cc1)CC1(C(=O)O)CC1)c1nc(O)n[nH]1 [Example 11-3, 1-{(R)-3-Biphenyl-4-yl-2-[(5-hydroxy-2H-[1,2,4]triazole-3-carbonyl)-amino]-propyl}-cyclopropanecarboxylic acid] | 1.26 to 10
CC(O)(C[C@@H](Cc1ccc(-c2ccccc2)cc1)NC(=O)c1cc(Cl)c2nn[nH]c2c1)C(=O)O (stereo partly drawn) [Example 2-5, (R)-5-Biphenyl-4-yl-4-[(7-chloro-3H-benzotriazole-5-carbonyl)-amino]-2-hydroxy-2-methyl-pentanoic acid] | 1.26 to 10
C[C@@](O)(C[C@@H](Cc1ccc(-c2ccccc2)cc1)NC(=O)c1cnc(O)nc1)C(=O)O [Example 2-9, (2R,4R)-5-Biphenyl-4-yl-2-hydroxy-4-[(2-hydroxy-pyrimidine-5-carbonyl)-amino]-2-methyl-pentanoic acid] | ≤ 1
CC(C)CN(C)C(=O)c1cc(C(=O)N[C@H](Cc2ccc(-c3ccccc3)cc2)CC(C)(C)C(=O)O)[nH]n1 [Example 9-14, (R)-5-Biphenyl-4-yl-4-{[5-(isobutyl-methyl-carbamoyl)-2H-pyrazole-3-carbonyl]-amino}-2,2-dimethyl-pentanoic acid] | 12.6 to 100
CC(O)(C[C@@H](Cc1ccc(-c2ccccc2)cc1)NC(=O)c1cc(O)n[nH]1)C(=O)O (stereo partly drawn) [Example 2-12, (R)-5-Biphenyl-4-yl-2-hydroxy-4-[(5-hydroxy-2H-pyrazole-3-carbonyl)-amino]-2-methyl-pentanoic acid] | 1.26 to 10
